Legend:
[1] = tested on: receptor (receptor binding assay) or mouse free fat cell (lipogenesis); assay: Biological activity relative to human insulin, receptor binding or lipogenesis assays; settings: for Activity relative to human insulin (= 1.00): either receptor binding or lipogenesis assays
Description: Metab. Res. 6, 12-16 and Vølund (1978) Biometrics 34, 357-365 or in the receptor binding assay as described by Andersen et al. (1992) J. Biol. Chem. 267, 13681-13686.
Methods of analysing the biological activity (hypoglycaemic effect) of insulins are well know, and include receptor binding assays using whole cells or soluble receptors, the mouse free fat cell assay, euglycaemic pig clamp assay, intravenous rabbit blood glucose assay and the subcutaneous mouse blood glucose assay (Vølund et al. (1991) Diabetic Medicine, 8, 839-847, Brange et al. (1990) Diabetes Care 13, 923-954, Drejer (1992) Diabetes/Metabolism Reviews 8, 259-286)

NOD mice [2] = assay: Prophylactic effect of daily subcutaneous administration on diabetes and survival in NOD mice (Example 2); assay type: in vivo; settings: for protection against development of diabetes compared with human insulin: daily s.c., equimolar doses (0.77 mg/kg), NOD mice; for diabetes incidence versus buffer treated animals at 40 weeks of age: s.c. daily 0.77 mg/kg from 5 to 32 weeks of age, after termination of treatment; for diabetes incidence versus buffer treated animals at 31 weeks of age: s.c. daily 0.77 mg/kg from 5 weeks of age, after 26 weeks of treatment, female NOD mice; for mice died of hypoglycaemia during the treatment period: 0.77 mg/kg
Method: Female NOD (non-obese diabetic) mice, 4 weeks old, were obtained from Bommice (Bomholtgård, Ry, Denmark). At the beginning of the experiment there were a total of 30 animals in each of the three groups mentioned below. […] The treatment was continued until the mice were 32 weeks old, at which age treatment was stopped and the mice observed until they were 40 weeks old. Beginning when the mice were 10 weeks old, the urine was tested weekly for the presence of glucose using glucosuria test tape (Tes-Tape, Lilly, Indianapolis, Ind.). If an animal tested positive in the glucose urine test, a blood sample was taken and blood glucose measured using a glucose analyzer. If the blood glucose was 15 mmol/l or higher, the animal was classified as diabetic and then sacrificed.

NOD mice [3] = assay: Daily subcutaneous administration in the initial stage of diabetes in NOD mice (Example 3); assay type: in vivo; settings: for frequency of diabetes compared to buffer treated animals: s.c. daily 0.77 mg/kg from 10 to 37 weeks of age, effect from 15 weeks until end, female NOD mice; for cases of diabetes after termination of the treatment: treatment stopped at 37 weeks, observed until 39 weeks
Method: Female NOD (non-obese diabetic) mice, 4-5 weeks old, were obtained from the Jackson Laboratory (Bar Harbour, Me.). At the beginning of the experiment, there were a total of 20 animals in each of the three groups mentioned below. […] The treatment was continued until the mice were 37 weeks old, at which age treatment was stopped. The mice were observed until they were 39 weeks old. Beginning when the mice were 10 weeks old, the urine was tested weekly for the presence of glucose using glucosuria test tape (Tes-Tape, Lilly, Indianapolis, Ind.). If an animal tested positive in the glucose urine test, a blood sample was taken and blood glucose measured using a glucose analyzer. If the blood glucose was 15 mmol/l or higher, the animal was classified as diabetic and sacrificed.

NOD mice [4] = assay: Effect on blood glucose level of daily subcutaneous injection in NOD mice (Example 1); assay type: in vivo, mouse; settings: for effect on blood glucose level: day 7, 6 hours after injection, female NOD mice
Method: Furthermore, 4 of the 5 animals receiving insulin (3.8 mg/kg) died of hypoglycaemia after 3-5 days of treatment and animal number five had to be sacrificed on day seven due to symptoms of hypoglycaemia.

C57/BL mice = assay: Effect of oral administration on blood glucose level in mice (Example 4); assay type: in vivo, mouse; settings: oral gavage 1 mg, 2 times a week, after 4 weeks of treatment; non-fasted; 15 minutes
Method: After 4 weeks of treatment, the effect on the blood glucose level in non-fasted animals was analyzed. An initial blood sample was taken in order to determine the control blood glucose level. 15-30 minutes later the animals were fed by gavage and the blood glucose level was determined after further 15, 60 and 180 minutes. […] Insulin is a well known growth factor and has a direct mitogenic effect. The consequence of having a high concentration of intact insulin in the gut lumen directly exposing gut epithelium to its effect is not known but could potentially be serious.

Row | Substance | Activity relative to human insulin (= 1.00) [1] | other results
1 | Glu^B12 human insulin | 0.0004 | –
2 | Val^A2,Ile^A3 human insulin | 0.021 | –
3 | D-allo Ile^A2 human insulin | 0.002 | –
4 | Nle^A2 human insulin | 0.01 | –
5 | des (B25-B30) human insulin | 0.06 | –
6 | desA1 human insulin | 0.006 | –
7 | des (B24-B30) human insulin | 0.002 | –
8 | Asp^B25 human insulin | 0.001 | cases of diabetes after termination of treatment (NOD mice [2]; 0.77 mg/kg s.c. daily until 32 weeks, observed until 40 weeks): 1 case; protection against development of diabetes compared with human insulin (NOD mice [2]; listed as X38, 0.77 mg/kg): prevented the development of diabetes to the same, or higher degree as insulin did; protection against development of diabetes compared with human insulin (NOD mice [2]; listed as human insulin with a single amino acid substitution in position B25, 0.77 mg/kg): protects as well against diabetes as equimolar doses of human insulin does; diabetes incidence versus buffer treated animals at 40 weeks of age (NOD mice [2]): still highly significantly lower; diabetes incidence versus buffer treated animals at 31 weeks of age (NOD mice [2]): highly significantly (p<0.01) lower; treated animals died (NOD mice [2]; s.c. daily 0.77 mg/kg, 30 animals per group, not statistically different from buffer group): one; hormonally active (relative to human insulin) [1]: less than 0.1%; frequency of diabetes compared to buffer treated animals (NOD mice [3]): reduced the frequency of diabetes to the same, or higher degree as insulin did; treated animals died (NOD mice [3]; s.c. daily 0.77 mg/kg, 20 animals per group): none; cases of diabetes after termination of the treatment (NOD mice [3]): no cases of diabetes occurred; mice died or displayed hypoglycaemia (NOD mice [4]; s.c. daily 17.3, 5.8 or 0.6 mg/kg, 26 days observation period): None; effect on blood glucose level (NOD mice [4]; s.c. daily 17.3, 5.8 or 0.6 mg/kg): do not affect the blood glucose levels
9 | Gly^A2 human insulin | 0.01 | –
10 | Leu^A19 human insulin | 0.001 | –
11 | Ala^A2 human insulin | 0.006 | –
12 | desA21 human insulin | 0.04 | –
13 | Pro^A2 human insulin | 0.01 | –
14 | D-Cys^A6,D-Cys^A11 human insulin | 0.00027 | –
15 | D-Cys^A11 human insulin | 0.007 | –
16 | Leu^A3 human insulin | 0.0018 | –
17 | Abu^A2,Abu^A3 human insulin | 0.0041 | –

Row | Substance | Activity relative to human insulin (= 1.00) [1] | other results
18 | D-Ala^B12 human insulin | 0.007 | –
19 | Asn^B12 human insulin | 0.002 | –
20 | D-Cys^A6 human insulin | 0.0023 | –
21 | Nva^A3 human insulin | 0.014 | –
22 | des (A1-A2) human insulin | 0.0014 | –
23 | D-Cys^A7 human insulin | 0.002 | –
24 | des (B1-B5) human insulin | 0.05 | –
25 | Phe^B12 human insulin | 0.002 | –
26 | des (B23-B30) human insulin | 0.001 | –
27 | Nle^A3 human insulin | 0.0038 | –
28 | Ser^A6,Ser^A11,des(A8-A10) human insulin | 0.0001 | –
29 | des (B1-B6) human insulin | 0.0004 | –
30 | Gly^A2,Gly^A3 human insulin | 0.00014 | –
31 | human insulin [reference compound] | – | diabetes incidence versus buffer treated animals at 40 weeks of age (NOD mice [2]): still significantly (p<0.05) lower; diabetes incidence versus buffer treated animals at 31 weeks of age (NOD mice [2]): significantly reduced the incidence of diabetes; mice died of hypoglycaemia during the treatment period (NOD mice [2]; s.c. daily 0.77 mg/kg, 30 animals per group): approx. 50%; mice died of hypoglycaemia during the treatment period (NOD mice [2]; s.c. daily 0.77 mg/kg, 30 animals per group, listed as insulin): 50%; frequency of diabetes compared to buffer treated animals (NOD mice [3]): reduced the frequency of diabetes; cases of diabetes after termination of the treatment (NOD mice [3]): no cases of diabetes occurred; effect on blood glucose level (NOD mice [4]; s.c. daily 0.6 mg/kg): marked hypoglycaemic effect; time of death from hypoglycaemia (NOD mice [4]; s.c. daily 3.8 mg/kg, days of treatment): 3 to 5 days; animals died of hypoglycaemia (NOD mice [4]; s.c. daily 3.8 mg/kg, group of 5 NOD mice): 4 of the 5; blood glucose level immediately after feeding (C57/BL mice): profound immediate reduction in the blood glucose level
32 | Thr^A2 human insulin | 0.001 | –
33 | des (A1-A3) human insulin | 0.0011 | –
34 | Gly^B6 human insulin | 0.0005 | –

— patent US20010041669A1, “Prevention of diabetes” (priority 1995, published 2001)
